Experiment [1] in a line: Binding affinity to human telomeric duplex DNA.
The species entered for experiment [2] is Homo sapiens. Briefly: Binding to human telomeric i-Motif DNA by fluorescence titration method.
Experiment [3] is filed under the species Homo sapiens. Briefly: Increase in thermal stability of human telomeric i-Motif DNA assessed as change in melting temperature at pH 5.5.
A short description of experiment [4]: Binding affinity to human telomeric G-quadruplex DNA.
Experiment [5] in a line: Binding affinity to d(C5T3)3C5 i-Motif DNA (unknown origin) by UV titration method.
The species entered for experiment [6] is Homo sapiens. The experiment is described as follows: Binding affinity to human telomeric G-quadruplex DNA assessed as change in melting temperature by FRET assay.
Experiment [7] is filed under the species Homo sapiens. Briefly: Binding affinity to human telomeric i-Motif DNA assessed as change in melting temperature at pH 6.8 by FRET assay.
The nature of experiment [8]: Binding affinity to bcl-2 i-Motif DNA (unknown origin) by fluorescence based assay.
Experiment [9] can be described thus: Antitumor activity against human GRANTA-519 cells xenografted in mouse assessed as inhibition of tumor growth co-administered with etoposide. It counts as functional.
Experiment [10] is described as follows: Reduction in bcl-2 expression in human GRANTA-519 cells xenografted in mouse. The class given is functional. The note with it: dose or concentration not given here.

As to `O=C(Nc1ccc(OCCN2CCCCC2)cc1)c1ccc2ccc3ccc(C(=O)Nc4ccc(OCCN5CCCCC5)cc4)nc3c2n1`, the Kd in experiment [1] amounted to 6.7 µM; in the experiment listed under Homo sapiens [2] it was 4 µM; in experiment [4], 1.6 µM. For the same compound, the ΔTm in the experiment filed under Homo sapiens [3] stood at 7 °C.
Turning to `CN(C)c1ccc(C(=C2C=CC(=[N+](C)C)C=C2)c2ccc(N(C)C)cc2)cc1` [GENTIAN VIOLET], the Kd in [5] amounted to 0.83 µM.
Take `c1cc2nc3ccc4cc3cc2cc1CNCCNCCNCc1ccc2nc3ccc(cc3cc2c1)CNCCNCCNC4`: the results for the ΔTm in the experiment listed under Homo sapiens [6] and in the experiment listed under Homo sapiens [7] were 15 °C and 33 °C, respectively.
As for `CC(C)CC[C@H](C)[C@@H]1CC[C@H]2[C@@H]3CC[C@H]4C[C@@H](NC(=O)C[N+]5(C)CCCCC5)CC[C@]4(C)[C@H]3CC[C@@]21C`, binding in experiment [8] was characterised by a dissociation constant (Kd) of 0.49 µM.
For `CN(C)CCOc1ccc(NC(=O)c2ccc3ccc4ccc(C(=O)Nc5ccc(OCCN(C)C)cc5)nc4c3n2)cc1`, the results for the Kd (in [1]; in the experiment filed under Homo sapiens [2]; in experiment [4]) were 6.7 µM, 4 µM and 1.6 µM, respectively. Also, the ΔTm in the experiment listed under Homo sapiens [3] worked out at 7 °C.
The corresponding values for `O=C(Nc1ccc(OCCN2CCCC2)cc1)c1ccc2ccc3ccc(C(=O)Nc4ccc(OCCN5CCCC5)cc4)nc3c2n1` are 6.7 µM, 4 µM, 1.6 µM and 7 °C.
Consider `COc1ccc2c(c1)CN([C@@H](C)[C@H]1CC[C@H]3[C@@H]4CC[C@H]5C[C@@H](O)CC[C@]5(C)[C@H]4CC[C@]13C)CO2`, for which the TGI in experiment [9] is 65%. In [10], this compound had an inhibition of 20%. The compound further showed a Kd in experiment [8] of 1.01 µM.

For the origin of these results see ChEMBL document CHEMBL3352292, “i-Motif DNA: structure, stability and targeting with ligands” (Bioorg Med Chem, 2014).
